Measured values from patent US8653036B2, “Methods of treating retinitis pigmentosa” (Mimetogen Pharmaceuticals Inc., priority 2009, dated 2014).

B1: NT-3: Neurotrophin-3 (an agonist of TrkC and p75 receptors) (protein, UniProt P20783 139-257, looked up)
Neurotrophin-3: YAEHKSHRGEYSVCDSESLWVTDKSSAIDIRGHQVTVLGEIKTGNSPVKQYFYETRCKEARPVKNGCRGIDDKHWNSQCKTSQTYVRALTSENNKLVGWRWIRIDTSCVCALSRKIGRT

Experiments:
[1] = test system: APRE19 cells; experiment: Protection of retinal pigmented epithelial cells from oxidative-stress-induced apoptosis (TNFα and H2O2), nuclei stained with Hoechst reagent; type: cell-based; conditions: stressed APRE19 cells, TNFα and H2O2, sixteen hours
Description: Neurotrophic Protection of Retinal Pigmented Epithelial Cells from Degeneration Due to Oxidative Stress
The purpose of this study was to investigate the pharmacological concept of neurotrophic prevention of oxidative-stress-induced degeneration of retinal pigmented epithelial (RPE) cells. The aim of this study was to validate specific compounds as therapy for retinitis pigmentosa.
APRE19 cells were cultured in complete media, followed by eight hours of serum starvation. Then apoptosis was induced by exposure to oxidative stress (TNFα and H2O2), in the presence or absence of test compounds or controls for sixteen hours. Apoptosis was quantified as the percentage of dead cells over total live+dead cells by counting nuclei stained with Hoechst reagent.
Test agents included nerve growth factor (an agonist of TrkA and p75 receptors), Neurotrophin-3 (an agonist of TrkC and p75 receptors), and compounds D3, 3Ak, 3Ae and 3Aa.

[2] = test system: APRE19 cells; conditions: cited from earlier work
[3] = test system: mouse model of retinal degeneration; experiment: Mouse model of retinal degeneration: ERG (scotopic and photopic) and number of Outer Nuclear Layer rows; type: in vivo; conditions: drug treated versus control treated animals
Description: Additional experiments in a mouse model of retinal degeneration were conducted.

Molecule	protection of apoptosis (in words) [1]	protection of stressed APRE19 cells by neurotrophins (published) [2]	drug effect on ERG (scotopic and photopic) and number of Outer Nuclear Layer rows versus control [3]
CC[C@H](C)[C@@H]1NC(=O)c2cc(N)ccc2OCc2ccc(C(N)=O)cc2NC(=O)[C@H](CCCNC(=N)N)NC1=O [Compound 3Ae]	quantitative and significant protection of apoptosis, in a dose dependent manner		
NGF: nerve growth factor (an agonist of TrkA and p75 receptors)		Protection of stressed APRE19 cells	
N=C(N)NCCC[C@@H]1NC(=O)c2cc(N)ccc2OCc2ccc(C(N)=O)cc2NC(=O)CNC1=O [Compound 3Ak]	quantitative and significant protection of apoptosis, in a dose dependent manner		
CC[C@H](C)[C@@H]1NC(=O)c2cc(N)ccc2OCc2ccc(C(N)=O)cc2NC(=O)[C@H](CCCCN)NC1=O [Compound 3Aa]	protection is not dose dependent and is less than that seen with compounds D3, 3Ak and 3Ae		did not show a drug effect that was statistically significant from control
NCCCC[C@@H]1NC(=O)[C@H](CCC(=O)O)NC(=O)c2cc([N+](=O)[O-])ccc2OCCC(C(=O)NCC(=O)O)NC1=O (stereo partly shown) [Compound D3]	quantitative and significant protection of apoptosis, in a dose dependent manner		
B1		Protection of stressed APRE19 cells	
